# Measured values reported in US20210277009A1, “PRMT5 INHIBITORS” (Merck Sharp & Dohme Corp., priority 2018, published 2021).
# Where two headings read alike, the source gives them in different places.
# Key:
# [1] = system: symmetric dimethylation of arginine (SDMA) of PRMT5 substrates in MCF-7 cells; assay: PRMT5 Cell Target Engagement (TE) Assay; assay type: cell-based; conditions: treated for 3 days, nuclear SDMA by high content imaging, top concentration 10000 nM
# Excerpt: The PRMT5 TE assay is a biomarker assay for identifying compounds that inhibit symmetric dimethylation of arginine (SDMA) of PRMT5 substrates. The following substrates have been reported for PRMT5: histone H2A and H4 R3, Histone H3 R2, Histone H3 R8, spliceosome Sm proteins, ribosomal protein RPS10, p53, FEN1, nudeoplasmin, nucleolin, EGFR and EBNA. The assay will focus on detecting symmetrically dimethylated nuclear proteins using high content imaging technology. Detection of the expression of symmetrically dimethylated nuclear proteins is through a mixture of primary rabbit monoclonal antibodies to SDMA (CST 13222), which in turn recognized by an Alexafluor 488 dye-conjugated anti-rabbit IgG secondary antibody. The IN Cell Analyzer 2200 or Opera-Phenix measures nuclear Alexafluor 488 fluorescent dye intensity that is directly related to the level of expression of symmetrically dimethylated nuclear proteins at the single cell level. Nuclear AF488 dye intensities are compared to the mean value for DMSO treated cells (MIN) to report percent of inhibition for each compound-treated well.
# In this assay, the cell potency (EC50) of each compound was determined from a ten point (1:3 serial dilution; top compound concentration of 10000 nM) titration curve using the following outlined procedure. Each well of a BD falcon collagen coated black/clear bottom 384-well plate was seeded with 4000 MCF-7 cells in 30 μl media and allowed to attach for 5 h. Media is ATCC-formulated Eagle's Minimum Essential Medium, Catalog No. 30-2003. To make the complete growth medium, the following components were added to the base medium: 0.01 mg/ml human recombinant insulin; fetal bovine serum to a final concentration of 10%. Additional 30 μl of media containing 2× compounds were added to each well. Cells were treated for 3 days in 37° C. CO2 incubator. On day 3, cells were fixed with Cytofix, permeablized with 0.4% Triton-X-100/Cytofix, and washed with D-PBS without Ca/Mg. Cells were blocked with Licor Odessey blocking reagent for 1 h at room temperature, followed by incubation with anti-SDMA (1:1000) antibody at 4° C. overnight. 1° antibody was removed, followed by three washings with DPBS without Ca/Mg and 0.05% Tween20. Hoechst (5 μg/ml), Cell Mask deep stain (1:2000) and Alexa488-conjugated goat anti-rabbit IgG (2 μg/mL) was added for 1 hour at room temperature. A final washing step (three washes) was performed before sealing plate for imaging on In Cell Analyzer 2200 or Opera-Phenix. Images from analyzer were uploaded to Columbus (at WP or BOS) for image analysis. IC50 values were determined by 4 parameters robust fit of percent fluorescence units vs. (Logic) compound concentrations.
# [2] = biological target: T1, PRMT5-MEP50 enzyme complex (Homo sapiens, UniProt O14744); assay: PRMT5-MEP50 Enzyme Methylation Assay; assay type: biochemical
# T1 construct: 1.25 nM of Full-length (FL)-PRMT5-MEP50 enzyme complex; made in house; host or cells: baculovirus-transfected Sf21 cells
# Experimental: PRMT5-MEP50 biochemical assay is a direct measurement of the methylation activity of the enzyme complex on a short peptide substrate derived from the N-terminus of H4 histone. Methylation experiment is performed with recombinant PRMT5-MEP50 protein complex. The assessment of inhibitory effect of small molecules is measured by tire effectiveness of the compounds to inhibit tins reaction (EC50).
# In this assay, the potency (EC50) of each compound was determined from a twenty-point (1:2 serial dilution; top compound concentration of 100000 nM) titration curve using the following outlined procedure. To each well of a white ProxiPlus 384 well-plate, 100 nL of compound (1% DMSO in final assay volume of 10 μL) was dispensed, followed by the addition of 8 μL of 1× assay buffer (50 mM Bicine pH 8.0, 1 mM DTT, 0.004% Tween20, 0.01% BSA) containing 1.25 nM of Full-length (FL)-PRMT5-MEP50 enzyme complex (recombinant proteins from baculovirus-transfected Sf21 cells: FL-PRMT5; MW=[…] and FL-MEP50; MW=38614) and 1 μL of 150 μM S-(5′-Adenosyl)-L-Methionine Chloride (SAM). Plates were sealed and placed in a 37° C. humidified chamber for a 60 minutes pre-incubation with compound. Subsequently, each reaction was initiated by the addition of 1 μL 1× assay buffer containing 750 nM biotinylated H4R3(Mel) peptide. The final reaction in each well of 10 μL consists of 1.0 nM PRMT5-MEP50, 75 nM biotinylated-peptide, and […] SAM. Methylation reactions were allowed to proceed for 150 minutes in a sealed plate at 37° C. Reactions were immediately quenched by the addition of 1 μL of 5% formic acid. Plates were then frozen and shipped to SAMDITM Tech Inc. to determine the percent conversion from H4R3(Mel) to H4R3(Me2). Dose-response curves were generated by plotting percent effect (% product conversion; Y-axis) vs. Log 10 compound concentrations (X-axis). EC50 values were determined by non-linear regression according to models for either sigmoidal (4 parameters) or biphasic (7 parameters) dose-response curves.
# [3] = single EC50 from 4 parameters single site sigmoidal model, or first EC50 of 7 parameters biphasic model, 1.0 nM PRMT5-MEP50, H4R3(Me1) peptide, SAM, read-out: Enzyme Methylation Assay (EC50 or EC50_1)
# [4] = second EC50 of 7 parameters biphasic model, read-out: Enzyme Methylation Assay (EC50_2)
# T1 sequence (O14744 whole entry): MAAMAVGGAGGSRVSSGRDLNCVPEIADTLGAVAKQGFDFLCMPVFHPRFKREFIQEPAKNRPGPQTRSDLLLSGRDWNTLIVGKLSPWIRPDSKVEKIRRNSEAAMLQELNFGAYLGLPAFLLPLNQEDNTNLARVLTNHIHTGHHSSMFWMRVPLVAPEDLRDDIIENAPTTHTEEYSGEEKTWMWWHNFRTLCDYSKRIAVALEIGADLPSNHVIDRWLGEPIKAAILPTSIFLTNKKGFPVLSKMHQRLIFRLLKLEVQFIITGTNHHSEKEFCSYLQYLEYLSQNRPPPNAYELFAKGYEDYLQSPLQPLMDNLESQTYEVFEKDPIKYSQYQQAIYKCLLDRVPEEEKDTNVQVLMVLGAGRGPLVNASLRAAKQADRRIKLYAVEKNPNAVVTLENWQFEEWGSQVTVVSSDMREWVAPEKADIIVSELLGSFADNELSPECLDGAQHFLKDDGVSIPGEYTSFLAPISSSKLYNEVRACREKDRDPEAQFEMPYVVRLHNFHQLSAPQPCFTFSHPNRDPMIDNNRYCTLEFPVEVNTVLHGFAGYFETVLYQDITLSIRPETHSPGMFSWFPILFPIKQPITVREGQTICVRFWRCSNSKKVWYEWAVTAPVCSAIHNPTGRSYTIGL
# T1 sequence (Q9BQA1 whole entry partner): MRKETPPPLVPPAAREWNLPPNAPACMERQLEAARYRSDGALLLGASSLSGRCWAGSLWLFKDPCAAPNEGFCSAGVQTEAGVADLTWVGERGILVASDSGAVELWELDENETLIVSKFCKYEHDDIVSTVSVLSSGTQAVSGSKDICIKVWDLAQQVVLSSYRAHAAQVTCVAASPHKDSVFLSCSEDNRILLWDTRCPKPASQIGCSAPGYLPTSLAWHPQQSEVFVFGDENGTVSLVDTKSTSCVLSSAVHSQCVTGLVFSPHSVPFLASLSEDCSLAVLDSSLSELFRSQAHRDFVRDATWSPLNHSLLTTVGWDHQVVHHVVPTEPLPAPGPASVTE
"EC50 ([1]; Homo sapiens, MCF7, 72 h) [nM]","EC50 [2, 3] [nM]",EC50 [1] [nM],"EC50 [2, 4] [nM]",SMILES
,21.9,2440,,"Cc1ncnc2c1ccn2[C@@H]1S[C@@H](CCc2ccc3cc4c(nc3c2)NC(C)C4)[C@@H](O)[C@H]1O (single isomer, unassigned) [Example 39, (2S,3S,4R,5R)-2-(2-((R or S)-2-methyl-2,3-dihydro-1H-pyrrolo[2,3-b]quinolin-7-yl)ethyl)-5-(4-methyl-7H-pyrrolo[2,3-d]pyrimidin-7-yl)tetrahydrothiophene-3,4-diol]"
,47.7,55,,"Cc1ncnc2c1ccn2[C@@H]1SC(CCc2ccc3ccc(NCC(F)F)nc3c2)[C@@H](O)[C@H]1O (stereo in doubt) [Example 27, (2S,3S,4R,5R)-2-(2-{2-[(2,2-difluoroethyl)amino]quinolin-7-yl}ethyl)-5-(4-methyl-7H-pyrrolo[2,3-d]pyrimidin-7-yl)tetrahydrothiophene-3,4-diol]"
112,2.2,,200,"Nc1nc2cc(OC[C@H]3S[C@@H](n4ccc5c(N)ncnc54)[C@H](O)[C@@H]3O)ccc2cc1Cl [Example 2, 7-[5-O-(2-amino-3-chloroquinolin-7-yl)-4-thio-beta-D-ribofuranosyl]-7H-pyrrolo[2,3-d]pyrimidin-4-amine]"
≥ 10000,26.2,,,Nc1nc2cc(OC[C@H]3S[C@@H](n4ccc5c(Cl)ncnc54)[C@H](O)[C@@H]3O)ccc2cc1Cl [Example 5]
1130,9.8,,,"C[C@]1(COc2ccc3cc(Br)c(N)nc3c2)S[C@@H](n2ccc3c(Cl)ncnc32)[C@H](O)[C@@H]1O [Example 6, (2R,3S,4R,5R)-2-(((2-amino-3-bromoquinolin-7-yl)oxy)methyl)-5-(4-chloro-7H-pyrrolo[2,3-d]pyrimidin-7-yl)-2-methyltetrahydrothiophene-3,4-diol]"
1.3,0.7,,,"Nc1nc2cc(CC[C@H]3S[C@@H](n4ccc5c(N)ncnc54)[C@H](O)[C@@H]3O)ccc2cc1Br [Example 12, (2R,3S,4R,5R)-2-(2-(2amino-3bromoquinolin-7-yl)ethyl)-5-(4-amino-7H-pyrrolo[2,3-d]pyrimidin-7-yl)tetrahydrothiophene-3,4-diol]"

# The next lines start with the molecule.
SMILES,"EC50 ([1]; Homo sapiens, MCF7, 72 h) [nM]","EC50 [2, 3] [nM]",EC50 [1] [nM],"EC50 [2, 4] [nM]"
"Cc1cc2ccc(CC[C@H]3S[C@@H](n4ccc5c(C)ncnc54)[C@H](O)[C@@H]3O)cc2nc1N (single isomer, unassigned) [Example 28]",1.4,0.7,,
"Cc1cc2ccc(CC[C@@H]3S[C@@H](n4ccc5c(C)ncnc54)[C@H](O)[C@@H]3O)cc2nc1N (single isomer, unassigned) [Example 29]",0.9,0.6,,
"Cc1ncnc2c1ccn2[C@@H]1S[C@@H](CCc2ccc3cc4c(nc3c2)NC(C)C4)[C@@H](O)[C@H]1O (single isomer, unassigned) [Example 40, (2S,3S,4R,5R)-2-(2-((S or R)-2-methyl-2,3-dihydro-1H-pyrrolo[2,3-b]quinolin-7-yl)ethyl)-5-(4-methyl-7H-pyrrolo[2,3-d]pyrimidin-7-yl)tetrahydrothiophene-3,4-diol]",,57.9,,
"Nc1nc2cc(OC[C@H]3S[C@@H](n4ccc5c(N)ncnc54)[C@H](O)[C@@H]3O)ccc2cc1Br [Example 1, (2R,3S,4R,5R)-2-(((2-amino-3-bromoquinolin-7-yl)oxy)methyl)-5-(4-amino-7H-pyrrolo[2,3-d]pyrimidin-7-yl)tetrahydrothiophene-3,4-diol]",208,0.3,,76.7
"Nc1nc2cc(OC[C@H]3S[C@@H](n4ccc5c(N)ncnc54)[C@H](O)[C@@H]3O)ccc2cc1F [Example 3, 7-[5-O-(2-amino-3-fluoroquinolin-7-yl)-4-thio-beta-D-ribofuranosyl]-7H-pyrrolo[2,3-d]pyrimidin-4-amine]",596,6,,902
"Nc1ncnc2c1ccn2[C@@H]1S[C@H](COc2ccc3ccc(NCC4CC4)nc3c2)[C@@H](O)[C@H]1O [Example 4, 7-(5-O-{2-[(cyclopropylmethyl)amino]quinolin-7-yl}-4-thio-beta-D-ribofuranosyl)-7H-pyrrolo[2,3-d]pyrimidin-4-amine]",50.5,1.2,,569
"CC1(COc2ccc3cc(Br)c(N)nc3c2)SC(n2ccc3c(N)ncnc32)C(O)C1O [Example 7, (2R,3R,4R,5R)-2-(((2-amino-3-bromoquinolin-7-yl)oxy)methyl-5-(4-amino-7H-pyrrolo[2,3-d]pyrimidin-7-yl)-2-methyltetrahydrothiophene-3,4-diol]",122,2.5,,531
"COc1ncnc2c1ccn2[C@@H]1S[C@H](COc2ccc3ccc(NCC4CC4)nc3c2)[C@@H](O)[C@H]1O [Example 8, (2R,3S,4R,5R)-2-(((2-((cyclopropylmethyl)amino)quinolin-7-yl)oxy)methyl)-5-(4-methoxy-7H-pyrrolo[2,3-d]pyrimidin-7-yl)tetrahydrothiophene-3,4-diol]",3710,38300,,
"Cc1ncnc2c1ccn2[C@@H]1S[C@H](COc2ccc3ccc(NCC4CC4)nc3c2)[C@@H](O)[C@H]1O [Example 9, (2R,3S,4R,5R)-2-(((2-((cyclopropylmethyl)amino)quinolin-7-yl)oxy)methyl)-5-(4-methyl-7H-pyrrolo[2,3-d]pyrimidin-7-yl)tetrahydrothiophene-3,4-diol]",58.4,14,,2540
"COc1ncnc2c1ccn2[C@@H]1S[C@H](COc2ccc3ccc(N)nc3c2)[C@@H](O)[C@H]1O [Example 10, (2R,3S,4R,5R)-2-(((2-aminoquinolin-7-yl)oxy)methyl)-5-(4-methoxy-7H-pyrrolo[2,3-d]pyrimidin-7yl)tetrahydrothiophene-3,4-diol]",6020,19.5,,16200
"Nc1ccc2ccc(OC[C@H]3S[C@@H](n4ccc5c(N)ncnc54)[C@H](O)[C@@H]3O)cc2n1 [Example 11, (2R,3R,4S,5R)-2-(4-amino-7H-pyrrolo[2,3-d]pyrimidin-7-yl)-5-(((2-aminoquinolin-7-yl)oxy)methyl)tetrahydrothiophene-3,4-diol]",87.1,0.7,,55
"Nc1nc2cc(CC[C@@H]3S[C@@H](n4ccc5c(N)ncnc54)[C@H](O)[C@@H]3O)ccc2cc1Br [Example 13, (2S,3S,4R,5R)-2-(2-(2-amino-3-bromoquinolin-7-yl)ethyl)-5-(4-amino-7H-pyrrolo[2,3-d]pyrimidin-7-yl)tetrahydrothiophene-3,4-diol]",3.2,0.3,,
